Biological target: Estrogen receptor (Rattus norvegicus) (UniProt P06211+Q62986)
Test: Relative binding affinity for rat uterine estrogen receptor at 25 degree C
Type: protein assay

RBA: 60
SMILES: C[C@]12CC[C@@H]3c4ccc(O)cc4CC[C@H]3[C@@H]1C[C@@H](F)[C@@H]2O

Source: ChEMBL document CHEMBL1125026, “Synthesis and estrogen receptor binding of novel 11 beta-substituted estra-1,3,5(10)-triene-3,17 beta-diols” (J Med Chem, 1990)
